Patent US8343983B2, “Substituted pyrazolo-pyrimidine compounds” (ArQule, Inc., priority 2009, dated 2013)
Where two headings read alike, the source gives them in different places.

Test system: cancer cells
Assay: MTS assay: inhibition of cell growth (formazan absorbance at 492 nm after 72 hours with test compound)
Assay type: cell-based
Details: inhibition class
Outline: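 DMEM with 1% FBS; cells seeded at 3000/well and grown 18 h at 37 °C, then exposed to compound for 72 h and to MTS/PMS for 4 h. IC50 is the concentration giving a 50% absorbance drop; grades are % inhibition bands.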

[1] = Homo sapiens, DLD-1 cells, read-out: DLD-1, MTS 72 hours at 10 uM
[2] = Homo sapiens, KATO III cells, read-out: KATO III, MTS 72 hours at 10 uM
[3] = Homo sapiens, MDA-MB-231 cells, read-out: MDA-MB-231, MTS 72 hours at 10 uM
[4] = Homo sapiens, NCI-H1299 cells, read-out: NCI-H1299, MTS 72 hours at 10 uM
[5] = Homo sapiens, PC-3 cells, read-out: PC-3, MTS 72 hours at 10 uM
[6] = PACA-2 cells, read-out: PACA-2, MTS 72 hours at 10 uM

Measured: inhibition at 10 µM

O=C(CN1CCN(c2nc3c4c(n[nH]c4n2)CCN3Cc2ccccc2)CC1)N1CCCC1 [Compound 83, 6-benzyl-4-[4-(2-oxo-2-pyrrolidin-1-ylethyl)piperazin-1-yl]-2,6,7,8-tetrahydro-1,2,3,5,6-pentaazaacenaphthylene]
< 50%: [1] | [2] | [3] | [4] | [5] | [6]

COc1ccc(CN2CCc3n[nH]c4nc(Nc5ccc(N6CCN(C(=O)OCc7ccccc7)CC6)cc5)nc2c34)cc1 [Compound 119, benzyl 4-(4-{[6-(4-methoxybenzyl)-2,6,7,8-tetrahydro-1,2,3,5,6-pentaazaacenaphthylen-4-yl]amino}phenyl)piperazine-1-carboxylate]
50 to 79%: [4] | [5] | [6]
> 79%: [1] | [2] | [3]

c1ccc(OCCNc2nc3c4c(n[nH]c4n2)CCN3c2ccccc2)cc1 [Compound 212, N-(4-phenoxyethyl)-6-phenyl-2,6,7,8-tetrahydro-1,2,3,5,6-pentaazaacenaphthylen-4-amine]
< 50%: [1] | [2] | [3] | [4] | [5] | [6]

c1ccc(CN2CCc3n[nH]c4nc(N5CCN(c6ncccn6)CC5)nc2c34)cc1 [Compound 13, 6-benzyl-4-(4-pyrimidin-2-ylpiperazin-1-yl)-2,6,7,8-tetrahydro-1,2,3,5,6-pentaazaacenaphthylene]
< 50%: [1] | [2] | [3] | [4] | [5] | [6]

COc1ccc(CN2CCc3n[nH]c4nc(NCCOc5ccccc5)nc2c34)cc1 [Compound 108, 6-(4-methoxybenzyl)-N-(2-phenoxyethyl)-2,6,7,8-tetrahydro-1,2,3,5,6-pentaazaacenaphthylen-4-amine]
> 79%: [6]
< 50%: [2] | [3] | [4] | [5]
50 to 79%: [1]

CN(Cc1cccc2ccccc12)c1nc2c3c(n[nH]c3n1)CCN2Cc1ccccc1 [Compound 6, 6-benzyl-N-methyl-N-(1-naphthylmethyl)-2,6,7,8-tetrahydro-1,2,3,5,6-pentaazaacenaphthylen-4-amine]
< 50%: [1] | [2] | [3] | [4] | [5] | [6]

N#Cc1cccnc1N1CCN(c2nc3c4c(n[nH]c4n2)CCN3Cc2ccccc2)CC1 [Compound 8, 2-[4-(6-benzyl-2,6,7,8-tetrahydro-1,2,3,5,6-pentaazaacenaphthylen-4-yl)piperazin-1-yl]nicotinonitrile]
< 50%: [1] | [2] | [3] | [4] | [5] | [6]

O=C(NCCc1ccccc1)C1CN(Cc2ccccc2)c2nc(NCc3ccccc3)nc3[nH]nc1c23 (stereo not drawn) [Compound 235, 6-benzyl-4-(benzylamino)-N-(2-phenylethyl)-2,6,7,8-tetrahydro-1,2,3,5,6-pentaazaacenaphthylene-8-carboxamide]
> 79%: [1] | [2] | [3] | [4] | [5] | [6]

CN1CCCC1CCNc1nc2c3c(n[nH]c3n1)CCN2Cc1ccccc1 (stereo not drawn) [Compound 41, 6-benzyl-N-[2-(1-methylpyrrolidin-2-yl)ethyl]-2,6,7,8-tetrahydro-1,2,3,5,6-pentaazaacenaphthylen-4-amine]
50 to 79%: [3]
< 50%: [1] | [2] | [4] | [5] | [6]

CC(C)Nc1nc2c3c(n[nH]c3n1)CCN2Cc1ccccc1 [Compound 60, 6-benzyl-N-isopropyl-2,6,7,8-tetrahydro-1,2,3,5,6-pentaazaacenaphthylen-4-amine]
< 50%: [1] | [2] | [3] | [4] | [5] | [6]

CN(CCc1ccccc1)c1nc2c3c(n[nH]c3n1)CCN2Cc1ccccc1 [Compound 81, 6-benzyl-N-methyl-N-(2-phenylethyl)-2,6,7,8-tetrahydro-1,2,3,5,6-pentaazaacenaphthylen-4-amine]
< 50%: [1] | [2] | [3] | [4] | [5] | [6]

c1ccc(CN2CCc3n[nH]c4nc(N5CCN(CCc6ccncc6)CC5)nc2c34)cc1 [Compound 74, 6-benzyl-4-[4-(2-pyridin-4-ylethyl)piperazin-1-yl]-2,6,7,8-tetrahydro-1,2,3,5,6-pentaazaacenaphthylene]
< 50%: [1] | [2] | [3] | [4] | [5] | [6]

COc1ccc(CN2CCN(c3nc4c5c(n[nH]c5n3)CCN4Cc3ccccc3)CC2)cc1 [Compound 24, 6-benzyl-4-[4-(4-methoxybenzyl)piperazin-1-yl]-2,6,7,8-tetrahydro-1,2,3,5,6-pentaazaacenaphthylene]
< 50%: [1] | [2] | [3] | [4] | [5] | [6]

c1ccc(CN2CCc3n[nH]c4nc(NCc5ccc6c(c5)OCO6)nc2c34)cc1 [Compound 31, N-(1,3-benzodioxol-5-ylmethyl)-6-benzyl-2,6,7,8-tetrahydro-1,2,3,5,6-pentaazaacenaphthylen-4-amine]
< 50%: [1] | [2] | [3] | [4] | [5] | [6]

COc1ccc(CN2CCc3n[nH]c4nc(NC5Cc6ccccc6C5)nc2c34)cc1 [Compound 106, N-(2,3-dihydro-1H-inden-2-yl)-6-(4-methoxybenzyl)-2,6,7,8-tetrahydro-1,2,3,5,6-pentaazaacenaphthylen-4-amine]
50 to 79%: [4] | [6]
> 79%: [1] | [2]
< 50%: [3] | [5]

COc1ccc(CN2CCc3nn(C)c4nc(SC)nc2c34)cc1 [Compound 130, 6-(4-methoxybenzyl)-2-methyl-4-(methylsulfanyl)-2,6,7,8-tetrahydro-1,2,3,5,6-pentaazaacenaphthylene]
< 50%: [1] | [2] | [3] | [4] | [5]
50 to 79%: [6]

O=C(NCc1ccccc1)C1CN(Cc2ccccc2)c2nc(NC3CCC3)nc3[nH]nc1c23 (stereo not drawn) [Compound 232, N,6-dibenzyl-4-(cyclobutylamino)-2,6,7,8-tetrahydro-1,2,3,5,6-pentaazaacenaphthylene-8-carboxamide]
< 50%: [1] | [2] | [3] | [4] | [5] | [6]

c1ccc(CN2CCc3n[nH]c4nc(NCc5ccc(Oc6ccccc6)cc5)nc2c34)cc1 [Compound 40]
< 50%: [1] | [3] | [5]
50 to 79%: [2] | [4] | [6]

Clc1ccc(CNc2nc3c4c(n[nH]c4n2)CCN3c2ccccc2)cc1 [Compound 213, N-(4-chlorobenzyl)-6-phenyl-2,6,7,8-tetrahydro-1,2,3,5,6-pentaazaacenaphthylen-4-amine]
50 to 79%: [4] | [6]
< 50%: [1] | [2] | [3] | [5]

Clc1ccccc1CNc1nc2c3c(n[nH]c3n1)CCN2c1ccccc1 [Compound 209, N-(2-chlorobenzyl)-6-phenyl-2,6,7,8-tetrahydro-1,2,3,5,6-pentaazaacenaphthylen-4-amine]
50 to 79%: [2]
< 50%: [1] | [3] | [4] | [5] | [6]

c1ccc(CNc2nc3c4c(n[nH]c4n2)CCN3Cc2ccccc2)cc1 [Compound 37, N,6-dibenzyl-2,6,7,8-tetrahydro-1,2,3,5,6-pentaazaacenaphthylen-4-amine]
< 50%: [1] | [2] | [3] | [4] | [5] | [6]

COc1ccc(CN2CCCc3n[nH]c4nc(N5CCCCC5)nc2c34)cc1 [Compound 245, 6-(4-methoxybenzyl)-4-piperidin-1-yl-6,7,8,9-tetrahydro-2H-1,2,3,5,6-pentaazabenzo[cd]azulene]
< 50%: [1] | [2] | [3] | [4] | [5] | [6]
